Measurements as given in US20040093331A1, “Computer program products, systems and methods for information discovery and relational analyses” (Board of Regents, University of Texas System, priority 2002, published 2004).

Test system: cardiac hypertrophy
Experiment: Isoproterenol-induced cardiac hypertrophy in mice, osmotic micro-infusion pumps, echocardiography before and 7 days after start of infusion
Assay type: in vivo
Method: Validation of a relevant relationship between chlorpromazine and cardiac hypertrophy was performed through a series of laboratory studies in mice comparing the effects of a known beta-adrenergic agonist (also known to induce hypertrophy), isoproterenol, with isoproterenol plus chlorpromazine.
In brief, the study included 2 groups of 8 mice fitted with osmotic micro-infusion pumps. One group was given a continuous dose of 20 mg/kg/day isoproterenol and the other 20 mg/kg/day isopreterenol+10 mg/kg/day chlorpromazine. A smaller dose of chlorpromazine was chosen in preference to a larger one to minimize alterations in feeding behavior. Additionally, it reduced an adverse reaction between chlorpromazine and avertin (tribromoethanol), a anesthetic agent. Echocardiograms were taken before treatment and 7 days after initiation of infusions. Mice were sacrificed and their heart weighed.
FIG. 19 and TABLE 22 summarize the study findings. Generally, cardiac hypertrophy (as assessed by echocardiography) was reduced in mice treated with chlorpromazine plus isoproterenol. […] Echocardiography was use to estimate the change in weight or thickness of several different cardiac structures over the course of treatment. For FIG. 19, ten mice received isoproterenol (ISO) and eight received isoproterenol and chlorpromazine (CPZ+ISO), where LVW=left ventricle weight (CPZ+ISO 11±27%, ISO 51±43%, P<0.02); LVMI=left ventricular mass index (CPZ+ISO 11±28%, ISO 50±52%, P<0.04); PWT=posterior wall thickness (CPZ+ISO 16±16%, ISO 36±27%, P<0.05), IVSWT=intraventricular septum wall thickness (CPZ+ISO 19±18%, ISO 31±20%, P<0.12).

## CC(C)NCC(O)c1ccc(O)c(O)c1 (stereo not shown) [ISO, isoproterenol]
FIG. 19, change over course of treatment, echocardiography, P<0.04
  LVMI=left ventricular mass index: 50±52%
FIG. 19, change over course of treatment, echocardiography, P<0.05
  PWT=posterior wall thickness: 36±27%
FIG. 19, change over course of treatment, echocardiography, P<0.12
  IVSWT=intraventricular septum wall thickness: 31±20%
FIG. 19, change over course of treatment, echocardiography, ten mice ISO, eight CPZ+ISO, P<0.02
  LVW=left ventricle weight: 51±43%
Table 22, change in intraventricular septum wall thickness over treatment, echocardiography, 7 days infusion
  DI VS WT: 31% ± 21%
Table 22, change in left ventricle weight over treatment, echocardiography, 20 mg/kg/day isoproterenol with or without 10 mg/kg/day chlorpromazine, 7 days
  LLVW: 53% ± 45%
Table 22, change in left ventricular mass index over treatment, echocardiography, 7 days infusion
  OLVMI: 50% ± 55%
Table 22, change in posterior wall thickness over treatment, echocardiography, 7 days infusion
  OPWT: 36% ± 28%

## C=CCN1CC[C@]23c4c5ccc(O)c4O[C@H]2C(=O)CC[C@@]3(O)[C@H]1C5 [Naloxone]
Mouse model as described for chlorpromazine, values not given
  effect of the drug in a mouse model of cardiohypertrophy: validated in vivo

## CN(C)CCCN1c2ccccc2Sc2ccc(Cl)cc21 [chlorpromazine]
10 mg/kg/day chlorpromazine + 20 mg/kg/day isoproterenol versus isoproterenol alone, mice
  cardiac hypertrophy (as assessed by echocardiography): protected the mice against the development of cardiac hypertrophy
